Source: PubChem BioAssay AID2060892 (Molecular Pharmacology Branch, DTP, NCI, 2025)

Test system: HOP-62 complex spheroids with HUVEC/MSC, viability
Assay: Anticancer human tumor HOP-62 cell line growth inhibition [RAS];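 further: spheroids exposed to agents for seven days before readout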;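 on viability, T/C: 100% = DMSO vehicle control viability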
Conditions: for IC50: curve of first compound; for viability, T/C: stronger effect = lower value
In short: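 Multi-cell-type spheroids: tumor cells plus HUVEC endothelial cells and mesenchymal stem cells. RAS-pathway inhibitors were combined with targeted agents, each dosed in half-log steps down from clinical Cmax, or from 10 microM when Cmax was unknown.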

[1] = second compound 0.000949 µM, first compound 0.0316 µM
[2] = second compound 0.000949 µM, first compound 0.1 µM
[3] = second compound 0.000949 µM, first compound 0.316 µM
[4] = second compound 0.000949 µM, first compound 1 µM
[5] = second compound 0.003 µM, first compound 0.0316 µM
[6] = second compound 0.003 µM, first compound 0.1 µM
[7] = second compound 0.003 µM, first compound 0.316 µM
[8] = second compound 0.003 µM, first compound 1 µM
[9] = second compound 0.00949 µM, first compound 0.0316 µM
[10] = second compound 0.00949 µM, first compound 0.1 µM
[11] = second compound 0.00949 µM, first compound 0.316 µM
[12] = second compound 0.00949 µM, first compound 1 µM
[13] = second compound 0.03 µM, first compound 0.0316 µM
[14] = second compound 0.03 µM, first compound 0.1 µM
[15] = second compound 0.03 µM, first compound 0.316 µM
[16] = second compound 0.03 µM, first compound 1 µM
[17] = second compound 0.0949 µM, first compound 0.0316 µM
[18] = second compound 0.0949 µM, first compound 0.1 µM
[19] = second compound 0.0949 µM, first compound 0.316 µM
[20] = second compound 0.0949 µM, first compound 1 µM
[21] = second compound 0.3 µM, first compound 0.0316 µM
[22] = second compound 0.3 µM, first compound 0.1 µM
[23] = second compound 0.3 µM, first compound 0.316 µM
[24] = second compound 0.3 µM, first compound 1 µM

C=CC(=O)N1CCN(c2nc(OCC3CCCN3C)nc3c(F)c(-c4nc(N)cc(C)c4C(F)(F)F)c(Cl)cc23)C(C)C1 (stereo unspecified) + CCn1c(-c2cc(N3CCN(C)CC3)cnc2C(C)OC)c2c3cc(ccc31)-c1csc(n1)CC(NC(=O)C1CC1C)C(=O)N1CCCC(N1)C(=O)OCC(C)(C)C2
IC50 (second compound 0.000949 µM): > 1000 nM | IC50 (second compound 0.003 µM): > 1000 nM | IC50 (second compound 0.00949 µM): > 1000 nM | IC50 (second compound 0.03 µM): < 3.16 nM | IC50 (second compound 0.0949 µM): < 3.16 nM | IC50 (second compound 0.3 µM): < 3.16 nM | viability, T/C (second compound 0.000949 µM, first compound 0.00316 µM): 92.6% | viability, T/C (second compound 0.000949 µM, first compound 0.01 µM): 85.2% | viability, T/C [1]: 66.2% | viability, T/C [2]: 88.2% | viability, T/C [3]: 84% | viability, T/C [4]: 66.1% | viability, T/C (second compound 0.003 µM, first compound 0.00316 µM): 75.6% | viability, T/C (second compound 0.003 µM, first compound 0.01 µM): 75.9% | viability, T/C [5]: 69.2% | viability, T/C [6]: 74.2% | viability, T/C [7]: 78.5% | viability, T/C [8]: 54.5% | viability, T/C (second compound 0.00949 µM, first compound 0.00316 µM): 70.7% | viability, T/C (second compound 0.00949 µM, first compound 0.01 µM): 52.2% | viability, T/C [9]: 52.9% | viability, T/C [10]: 59.8% | viability, T/C [11]: 49.7% | viability, T/C [12]: 46.1% | viability, T/C (second compound 0.03 µM, first compound 0.00316 µM): 46.8% | viability, T/C (second compound 0.03 µM, first compound 0.01 µM): 43.2% | viability, T/C [13]: 43.5% | viability, T/C [14]: 32.2% | viability, T/C [15]: 31.3% | viability, T/C [16]: 38.5% | viability, T/C (second compound 0.0949 µM, first compound 0.00316 µM): 35.6% | viability, T/C (second compound 0.0949 µM, first compound 0.01 µM): 37.1% | viability, T/C [17]: 34% | viability, T/C [18]: 36.7% | viability, T/C [19]: 29.2% | viability, T/C [20]: 27.2% | viability, T/C (second compound 0.3 µM, first compound 0.00316 µM): 39.4% | viability, T/C (second compound 0.3 µM, first compound 0.01 µM): 52.7% | viability, T/C [21]: 37.7% | viability, T/C [22]: 28.8% | viability, T/C [23]: 31.7% | viability, T/C [24]: 31.6%

CCC(CC)c1cc(NC2CCC(N)C2)n2nccc2n1 (stereo unspecified) + CCn1c(-c2cccnc2C(C)OC)c2c3cc(ccc31)N1CCOC(CC(NC(=O)C(C(C)C)N(C)C(=O)C3(F)CCN(C(=O)C#CC(C)(C)N(C)C)CC3)C(=O)N3CCCC(N3)C(=O)OCC(C)(C)C2)C1
IC50 (second compound 0.000949 µM): 1960 nM | IC50 (second compound 0.003 µM): 1980 nM | IC50 (second compound 0.00949 µM): 1860 nM | IC50 (second compound 0.03 µM): 1840 nM | IC50 (second compound 0.0949 µM): 1770 nM | IC50 (second compound 0.3 µM): 1700 nM | viability, T/C [1]: 126% | viability, T/C [2]: 107% | viability, T/C [3]: 96.3% | viability, T/C [4]: 110% | viability, T/C (second compound 0.000949 µM, first compound 3.16 µM): 6.83% | viability, T/C (second compound 0.000949 µM, first compound 10 µM): 1.38% | viability, T/C [5]: 116% | viability, T/C [6]: 101% | viability, T/C [7]: 109% | viability, T/C [8]: 118% | viability, T/C (second compound 0.003 µM, first compound 3.16 µM): 7.77% | viability, T/C (second compound 0.003 µM, first compound 10 µM): 0.66% | viability, T/C [9]: 91.4% | viability, T/C [10]: 96.5% | viability, T/C [11]: 101% | viability, T/C [12]: 121% | viability, T/C (second compound 0.00949 µM, first compound 3.16 µM): 5.15% | viability, T/C (second compound 0.00949 µM, first compound 10 µM): 0.65% | viability, T/C [13]: 98.5% | viability, T/C [14]: 99.6% | viability, T/C [15]: 100% | viability, T/C [16]: 113% | viability, T/C (second compound 0.03 µM, first compound 3.16 µM): 2.86% | viability, T/C (second compound 0.03 µM, first compound 10 µM): 0.81% | viability, T/C [17]: 91.7% | viability, T/C [18]: 98.4% | viability, T/C [19]: 96.9% | viability, T/C [20]: 104% | viability, T/C (second compound 0.0949 µM, first compound 3.16 µM): 1.59% | viability, T/C (second compound 0.0949 µM, first compound 10 µM): 0.78% | viability, T/C [21]: 82.5% | viability, T/C [22]: 86.8% | viability, T/C [23]: 95% | viability, T/C [24]: 95% | viability, T/C (second compound 0.3 µM, first compound 3.16 µM): 3.22% | viability, T/C (second compound 0.3 µM, first compound 10 µM): 1.08%

CC(=O)OC12COC1CC(O)C1(C)C(=O)C(O)C3=C(C)C(OC(=O)C(O)C(NC(=O)OC(C)(C)C)c4ccccc4)CC(O)(C(OC(=O)c4ccccc4)C21)C3(C)C (stereo unspecified) + C#Cc1c(F)ccc2cc(O)cc(-c3ncc4c(N5CC6CCC(C5)N6)nc(OCC56CCCN5CC(F)C6)nc4c3F)c12
IC50 (second compound 0.0316 µM): < 31.6 nM | IC50 (second compound 0.1 µM): < 31.6 nM | IC50 (second compound 0.316 µM): < 31.6 nM | IC50 (second compound 1 µM): < 31.6 nM | IC50 (second compound 3.16 µM): < 31.6 nM | IC50 (second compound 10 µM): < 31.6 nM | viability, T/C (second compound 0.0316 µM, first compound 0.0316 µM): 11.7% | viability, T/C (second compound 0.0316 µM, first compound 0.1 µM): 13.2% | viability, T/C (second compound 0.0316 µM, first compound 0.316 µM): 14.1% | viability, T/C (second compound 0.0316 µM, first compound 1 µM): 19.5% | viability, T/C (second compound 0.0316 µM, first compound 3.16 µM): 19.5% | viability, T/C (second compound 0.0316 µM, first compound 10 µM): 26.5% | viability, T/C (second compound 0.1 µM, first compound 0.0316 µM): 14.5% | viability, T/C (second compound 0.1 µM, first compound 0.1 µM): 13.9% | viability, T/C (second compound 0.1 µM, first compound 0.316 µM): 17.6% | viability, T/C (second compound 0.1 µM, first compound 1 µM): 17.7% | viability, T/C (second compound 0.1 µM, first compound 3.16 µM): 18.7% | viability, T/C (second compound 0.1 µM, first compound 10 µM): 27.1% | viability, T/C (second compound 0.316 µM, first compound 0.0316 µM): 12% | viability, T/C (second compound 0.316 µM, first compound 0.1 µM): 12.8% | viability, T/C (second compound 0.316 µM, first compound 0.316 µM): 16.6% | viability, T/C (second compound 0.316 µM, first compound 1 µM): 13.6% | viability, T/C (second compound 0.316 µM, first compound 3.16 µM): 18.4% | viability, T/C (second compound 0.316 µM, first compound 10 µM): 23.5% | viability, T/C (second compound 1 µM, first compound 0.0316 µM): 14.7% | viability, T/C (second compound 1 µM, first compound 0.1 µM): 10.3% | viability, T/C (second compound 1 µM, first compound 0.316 µM): 13.1% | viability, T/C (second compound 1 µM, first compound 1 µM): 11.6% | viability, T/C (second compound 1 µM, first compound 3.16 µM): 17.1% | viability, T/C (second compound 1 µM, first compound 10 µM): 15.2% | viability, T/C (second compound 3.16 µM, first compound 0.0316 µM): 9.36% | viability, T/C (second compound 3.16 µM, first compound 0.1 µM): 13.4% | viability, T/C (second compound 3.16 µM, first compound 0.316 µM): 13.2% | viability, T/C (second compound 3.16 µM, first compound 1 µM): 14% | viability, T/C (second compound 3.16 µM, first compound 3.16 µM): 17.8% | viability, T/C (second compound 3.16 µM, first compound 10 µM): 17.2% | viability, T/C (second compound 10 µM, first compound 0.0316 µM): 13.1% | viability, T/C (second compound 10 µM, first compound 0.1 µM): 12% | viability, T/C (second compound 10 µM, first compound 0.316 µM): 13.8% | viability, T/C (second compound 10 µM, first compound 1 µM): 13.7% | viability, T/C (second compound 10 µM, first compound 3.16 µM): 14.8% | viability, T/C (second compound 10 µM, first compound 10 µM): 21.3%
